Measured values: EP0612845A2 (priority 1993, dated 1994)
Like-named read-outs stand apart in the source and are kept apart here.

Experiments:
[1] = tested on: [¹²⁵I]b-Endorphin: Opioid Receptor Complex; assay: Dissociation of the solubilized R:L complex, measured by binding to WGA-agarose; format: biochemical, rat
[2] = target: T1, m-opiate receptor (mOR) cDNA RC8-1 expressed in COS cells (Rattus norvegicus, UniProt P33535); format: binding
T1 construct: expressed in transfected cells; host or cells: COS cells, transient electroporation with pcDNA1RC8-1; membranes

[3] = target: T1, m-opiate receptor (mOR) cDNA RC8-1 expressed in COS cells; format: binding; remark: listed apart in the source
[4] = target: rat brain opioid receptor; assay: Competition with [125I]b-endorphin for binding to rat brain membranes (analytical microtiter plate assay)
Method: Whole male rat brains frozen in liquid N₂ are purchased from Pel-Freez (Rogers, AR). All procedures for membrane preparation are carried out at a temperature of 2-6 °C. The brains are homogenized in a Waring blender in a buffer containing 1 mM Na-bicarbonate (pH 7.2), 1 mM EDTA, 1 mM EGTA (all chemicals from Sigma Chemical, St. Louis, MO) and 0.7% (vol./vol.) of the 100X 4Pase protease inhibitor mixture (see "Protease Inhibitors" below). The ratio of tissue/homogenization medium is from 25-35 gm of brain/500 ml. The blender is controlled through a variable output rheostat (Staco Energy Products, Dayton, OH; type 3PN1010) at a setting of 40. The homogenate is centrifuged for 10 minutes at 1,000 x g pellet is rehomeginized in 500 ml of homogenization medium and recentrifuged for 10 minutes at 1,000 x g. The 1,000 x g pellet is discarded. The 1,000 x g supernatants are combined and centrifuged for 30 minutes at 20,000 x g. The 20,000 x g membrane pellet is washed by being resuspended with a Dounce homogenizer in 500 ml of homogenization medium supplemented with 10 mM EDTA (pH readjusted to 7.4) and then washed twice by being resuspended in 25 mM Tris buffer (Sigma Chemical Co.; pH 7.4) and centrifuged for 25 minutes at 20,000 x g. The final membrane pellet is resuspended in 25 mM inhibitor mixture to a protein concentration of 4-12 mg/ml. The resuspended membranes are aliquoted, frozen on dry ice and stored at -90 °C.
Binding of [¹²⁵I]-labelled b-endorphin, b-endorphin and other b-endorphin analogs and opioids is done in a binding buffer containing 50 mM HEPES (Sigma; pH 7.4; pHed with KOH), 0.1% (w/v) bovine serum albumin (Miles Laboratories, Elkhart, IN) and protease inhibitors as specified below for specific applications. All binding incubations are carried out at room temperature (20-23 °C). • A. Analytical - This assay is carried out in 96 well microtiter plates (Immulon II with snap-off wells; Dynatech, Chantille, VA). To carry out the assay, the following components are added to the wells in the order and volumes shown: (1) […] of nonlabelled ligand. For this purpose, ligands (for example b-endorphin or biotinylated b-endorphin) are made up at 40X the desired final concentration in the 40X P/B/Pz protease inhibitor mixture (Experimental Procedures. 4.C.) (2) […] of [¹²⁵I]b-endorphin in binding buffer + 1/100 volume of the 100X 4Pase protease inhibitor mixture; mix briefly on a microtiter plate shaker (Dynatech Micro-Shaker II, Dynatech, Chantilly, VA). (3) […] of rat brain membrane diluted in binding buffer + […] volume of 100X 4Pase to deliver […] of membrane protein per well. The plates are then covered with Linbro Mylar plate sealers (Flow Labs, McLean, VA) and incubated for 1 hour at room temperature (20-23 °C). The membranes are pelleted by centrifugation at 2,000 x g, the supernatants (containing nonbound ligands) are decanted and the pellets are washed by the addition of […] of ice cold binding buffer, brief shaking and recentrifugation. CPM of [¹²⁵I] in the final membrane pellets is then counted in a gamma counter (LKB Gammamaster 1277; 80% efficiency). • B. Preparative - Rat brain membranes are diluted to a concentration of 0.5 mg of membrane protein/ml in binding buffer containing 1/400 (vol./vol.) of the 400X P/B/Bz protease inhibitor mixture (see Section 4). […] In this case, the blocking ligand is added from 5-15 minutes prior to the addition of biotinyl-b-endorphin. In some cases only the blocking ligand is added. […]

[5] = competition with [¹²⁵I]b-endorphin, rat brain membranes, read-out: IC₅₀s for reduction of radioligand binding by competition with cold ligand
[6] = reanalysis, F1 fraction heated at 50°C for 5 min, read-out: IC50 for binding to receptors in rat brain membranes by competition vs. [¹²⁵I]b-endorphin (reanalysis)

T1 sequence (P33535 whole entry): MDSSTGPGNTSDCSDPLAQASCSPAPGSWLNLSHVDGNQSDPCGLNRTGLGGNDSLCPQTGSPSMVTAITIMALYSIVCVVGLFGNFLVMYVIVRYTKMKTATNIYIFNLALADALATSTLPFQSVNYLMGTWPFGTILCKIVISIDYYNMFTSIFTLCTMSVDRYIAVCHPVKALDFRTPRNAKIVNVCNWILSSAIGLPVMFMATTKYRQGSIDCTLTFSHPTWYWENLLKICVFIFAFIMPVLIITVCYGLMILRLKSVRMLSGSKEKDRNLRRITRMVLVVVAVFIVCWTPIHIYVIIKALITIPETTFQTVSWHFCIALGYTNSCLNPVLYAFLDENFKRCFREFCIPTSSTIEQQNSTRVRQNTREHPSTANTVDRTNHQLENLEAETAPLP

`Nc1nc2c(ncn2[C@@H]2O[C@H](COP(=O)(O)OP(=O)(O)OP(O)(O)=S)[C@@H](O)[C@H]2O)c(=O)[nH]1` [GTP-g-S] was tested, and the “dissociation of receptor from ligand” value ([1]; GTP analog alone, without NaCl) was “about 30%”, the “% Decrease in R:L Complex” value ([1]; Table 1, 100 mM GTP-g-S, 10 minutes at room temperature) was 34% and the “% Decrease in R:L Complex” value ([1]; Table 2, 100 mM GTP-g-S + 25 mM NaCl) was 77%. For the same compound, the “% Decrease in R:L Complex” value ([1]; Table 2, 100 mM GTP-g-S + 50 mM NaCl) was 90%, the “% Decrease in R:L Complex” value ([1]; Table 2, 100 mM GTP-g-S + 100 mM NaCl) was 93% and the “% Decrease in R:L Complex” value ([1]; Table 2, 100 mM GTP-g-S alone) was 24%.
In the case of `Nc1nc2c(ncn2[C@@H]2O[C@H](COP(=O)(O)OP(=O)(O)OP(=O)(O)O)[C@@H](O)[C@H]2O)c(=O)[nH]1` [GTP], the “effect of addition to incubations on [³H]DAMGO binding” value [2] is reported as “reduced”.
In the case of `CN1CC[C@]23c4c5ccc(O)c4O[C@H]2[C@@H](O)C=C[C@H]3[C@H]1C5` [Morphine], the “potency in displacing binding of [³H]DAMGO” value (from here on “potency in displacing binding”) [3] is reported as “high potency”.
With `CCC12CCN(CC3(O)CC3)C(Cc3ccc(O)cc31)C2(C)C` (centres unmarked) [bromazocino] the “potency in displacing binding” value [3] was “high potency”.
`CN1CC[C@]23CCCC[C@H]2[C@H]1Cc1ccc(O)cc13` [levorphan] was tested, and the “potency in displacing [³H]DAMGO binding relative to the pharmacologically inactive isomer” value [3] was “substantially greater potency”.
For NaCl, the “effect of addition to incubations on [³H]DAMGO binding” value [2] was “reduced”.
“[biotinyl-Lys³²]b-endorphin [biotinyl-b-endorphin (F1)]” was tested, and the IC50 [4, 5] was 1 nM.
“[biotinyl-Lys³²]b-endorphin [biotinyl-b-endorphin (F2)]” gave an IC50 [4, 5] of 5 nM.
For “[biotinyl-Lys³²]b-endorphin [biotinyl-b-endorphin]”, the IC50 [4, 6] was 1.8 nM.
Work on b-endorphin yielded an IC50 [4, 5] of 1 nM and an IC50 [4, 6] of 1.2 nM.
With ethylketocyclazocino the “potency in displacing binding” value [3] was “high potency”.
